Measured values from patent publication EP2014168A1, “Insecticidal heterocyclic compounds” (priority 2007, dated 2009).

How the values were obtained:
[1] = logP determination (acidic, formic acid)
[2] = test system: Myzus persicae; assay: Myzus test (spray treatment); assay type: in vivo; details: foliar, read-out: Wirkung
Excerpt: Myzus-Test (Spritzbehandlung)
Zur Herstellung einer zweckmäßigen Wirkstoffzubereitung vermischt man 1 Gewichtsteil Wirkstoff mit den angegebenen Mengen Lösungsmittel und Emulgator und verdünnt das Konzentrat mit emulgatorhaltigem Wasser auf die gewünschte Konzentration.
Chinakohlblattscheiben (Brassica pekinensis), die von allen Stadien der Grünen Pfirsichblattlaus (Myzus persicae) befallen sind, werden mit einer Wirkstoffzubereitung der gewünschten Konzentration gespritzt.
Nach der gewünschten Zeit wird die Wirkung in % bestimmt. Dabei bedeutet 100 %, dass alle Blattläuse abgetötet wurden; 0 % bedeutet, dass keine Blattläuse, abgetötet wurden.

[3] = physchem; details: formic acid
[4] = test system: Myzus persicae; assay: Myzus test - oral; assay type: in vivo; details: read-out: Wirkung
Excerpt: Lösungsmittel: 80,0 Gewichtsteile Aceton
Zur Herstellung einer zweckmäßigen Wirkstoffzubereitung vermischt man 1 Gewichtsteil Wirkstoff mit den angegebenen Mengen Lösungsmittel und verdünnt das Konzentrat mit Wasser auf die gewünschte Konzentration.
Gefäße werden mit allen Stadien der Grünen Pfirsichblattlaus (Myzus persicae) besetzt, durch saugen an der Wirkstoffzubereitung der gewünschten Konzentration wird behandelt.
Nach der gewünschten Zeit wird die Wirkung in % bestimmt. Dabei bedeutet 100 %, dass alle Blattläuse abgetötet wurden; 0 % bedeutet, dass keine Blattläuse abgetötet wurden.

[5] = 500 g/ha, spray on infested Brassica pekinensis leaf discs, 100 % = all aphids killed
[6] = 500 g/ha, oral uptake by sucking on the active compound preparation, 100 % = all aphids killed

Compound `O=C(NCCCl)NC1CCc2ccsc21` (stereo not shown) [Beispiel 1, 1-(2-Chloroethyl)-3-(5,6-dihydro-4H-cyclopenta[b]thien-6-yl)-harnstoff] has a logP ([1]; formic acid) of 1.77.
With `c1cc2c(s1)C(NC1=NCCO1)CC2` (stereo not shown) [Beispiel 2, N-(5,6-Dihydro-4H-cyclopenta[b]thien-6-yl)-4,5-dihydro-1,3-oxazol-2-amin] the mortality at 500 g/ha ([2]; in Brassica rapa) was at least 80% and the logP [3] was 0.42.
Work on `COCCNC(=S)N1CCO/C1=N\C1CCc2ccsc21` (stereo not shown) [Beispiel 3, (2Z)-2-(5,6-Dihydro-4H-cyclopenta[b]thien-6-ylimino)-N-(2-methoxyethyl)-1,3-oxazolidine-3-carbothioamid] yielded a mortality at 500 g/ha [2, 5] of at least 80% and a logP ([1]; acidic) of 3.32.
`O=C(NCCCl)NC1CCc2ncccc21` (stereo not shown) [Beispiel 4, 1-(2-Chloroethyl)-3-(6,7-dihydro-5H-cyclopenta[b]pyridin-5-yl)-harnstoff] showed a logP ([1]; acidic) of 0.23.
`COCCNC(=S)N1CCO/C1=N\C1CCc2ncccc21` (stereo not shown) [Beispiel 6, (2Z)-2-(6,7-Dihydro-5H-cyclopenta[b]pyridin-5-ylimino)-N-(2-methoxyethyl)-1,3-oxazolidine-3-carbothioamid] gave a mortality at 500 g/ha [2, 5] of at least 80% and a logP ([1]; acidic) of 1.03.
With `CNC(=S)N1CCOC1=NC1CCc2ccsc21` (stereo not shown) [Beispiel 7] the mortality at 500 g/ha [2, 5] was at least 80%.
With `CCOC(=O)CNC(=S)N1CCOC1=NC1CCc2ccsc21` (stereo not shown) [Beispiel 14] the mortality at 500 g/ha [2, 5] was at least 80%.
`Clc1cc2c(s1)C(N=C1NCCO1)CC2` (stereo not shown) [Beispiel 18] showed a mortality at 500 g/ha [2, 5] of at least 80%.
Compound `CNC(=S)N1CCOC1=NC1CCc2cc(Cl)sc21` (stereo not shown) [Beispiel 19] has a mortality at 500 g/ha [2, 5] of at least 80%.
`CNC(=S)N1CCOC1=NC1CCc2ncccc21` (stereo not shown) [Beispiel 30] gave a mortality at 500 g/ha [2, 5] of at least 80%.
For `Cc1cnc2c(c1)CCC2N=C1NCCO1` (stereo not shown) [Beispiel 43], the mortality at 500 g/ha ([4]; po) was at least 80%.
`CNC(=S)N1CCOC1=NC1CCc2cc(C)cnc21` (stereo not shown) [Beispiel 44] gave a mortality at 500 g/ha [4, 6] of at least 80%.
Compound `CCOC(=O)CNC(=S)N1CCOC1=NC1CCc2cc(C)cnc21` (stereo not shown) [Beispiel 47] has a mortality at 500 g/ha [4, 6] of at least 80%.
